Reference: patent publication US9913831B2, “Methods and compositions for treating nephrogenic diabetes insipidus” (UNIVERSITY OF UTAH RESEARCH FOUNDATION, priority 2011, dated 2018)

Assays:
AQP2 protein = conditions: mice, lithium diet + clopidogrel 80 mg/kg bw/day 14 days
Experimental: The effect of administration of clopidogrel on lithium-induced polyuria was determined in mice (B6D2 genetic background). Groups of mice were administered either a lithium-containing diet (40 mmol/kg chow; custom prepared by MP Biomedicals, Aurora, Ohio) or lithium-containing diet plus clopidogrel (80 mg per kg body weight per day in drinking water) for 14 days. Twenty-four urine samples were collected prior to the start of the treatment (day 0), on days 8 and 9, and days 13 and 14. The data plotted in the graphs represent the mean of the values obtained on the two consecutive days. Results are mean±SE; n=5 for LI alone group and n=6 for LI+CLPD group; ANOVA followed by Tukey Kramer Multiple Comparison Test.

lithium-treated rats = assay: Effect of clopidogrel on lithium-induced alterations in rats (natriuresis, urinary nitrates/nitrites, hematocrit, body and kidney weight); conditions: rats, 2 weeks
Experimental: (§1) Animal experiments: Male Sprague-Dawley rats were purchased from Charles River (Wilmington, Mass., USA), and Brattleboro mutant rats that lack AVP (HsdBlu:BRAT-Avp^di) were obtained from the Rat Resource & Research Center (RRRC), University of Missouri, Columbia, Mo., USA. Mice (B6D2 genetic background) were bred in-house. […] Lithium-added chow (40 mmol Li/kg chow) was custom prepared (MP Biomedicals, Aurora, Ohio, USA). Clopidogrel bisulfate was administered orally by powdering and dissolving Plavix® tablets (Bristol-Myers Squibb, New York, N.Y., USA) in drinking water. The concentration of the drug in the drinking water was adjusted daily based on the water consumption of the animals the previous day. The clopidogrel dose used in Sprague-Dawley rats (20 mg/kg bw/day) was the same as used by other investigators (de La Crux et al, 2003; Graciano et al, 2008). In mice, clopidogrel was administered at a dose of 80 mg/kg bw/day. When compared with the human clinical dose of Plavix®, and adjusted to the Km factor (ratio of body surface area to body weight) of the species (man vs. rat or mouse) (Reagan-Shaw et al, 2007), the doses used in rats or mice were 2.5- and 5-fold higher, respectively. […] A higher dose of clopidogrel (40 mg/kg bw/day) was used in Brattleboro rats to ensure an unequivocal outcome whether positive or negative. Twenty-four hour urine samples were collected by placing the animals in the appropriate metabolic cages designed for rats and mice. Blood and kidney tissues were collected at necropsy. Cortical, outer and inner medullary regions of the kidneys were dissected out and processed for laboratory assays.
(§2) Blood, urine and tissue analysis: Osmolalities of clear urine samples were measured by vapor pressure method (Wescor, Logan, Utah, USA). Microhematocrit was determined by centrifuging free-flowing blood collected in heparinized capillary tubes in a microhematocrit centrifuge (Clay Adams, Parsippany, N.J., USA). Urinary excretion of AVP was quantified by a commercial ELISA kit (Enzo Life Sciences, Farmingdale, N.Y., USA). Total nitrate/nitrite contents of urine samples were determined by a commercial kit (Cayman Chemical, Ann Arbor, Mich.).Na, Li and K levels in serum and/or urine were determined on EasyElectrolyte® (Medica Corp., Bedford, Mass., USA). Based on serum and urine analysis, electrolyte-free clearance [CH20(e)] was computed using the formula CH20(e)=V((1−UNa+UK)/PNa), where V=urine volume, UNa and UK are urine Na and K, and PNa is plasma Na, respectively (Schrier 2006). Lithium levels in inner medullary tissue homogenates were assayed by Inductively Coupled Plasma-Mass Spectrometry (ICPMS) by Exova (Santa Fe Springs, Calif., USA), and were normalized to their respective protein contents.
Statistical Analysis: All quantitative data are expressed as mean±standard error (SE). Comparisons among the means of multiple groups were made by one-way analysis of variance (ANOVA), followed by the assessment of statistical significance by Tukey-Kramer Multiple Comparison Test or Student-Newman-Keuls Multiple Comparison Test. Differences between the means of two groups were determined by unpaired t test or where applicable, by Mann-Whitney nonparametric test. P values less than 0.05 were considered significant. GraphPad Instat® (GraphPad Software, Inc., La Jolla, Calif.) was used for statistical analysis.

[1] = system: lithium-induced polyuria in rats
Experimental: as §1, with “(HsdBlu:BRAT-Avpdi)” for “(HsdBlu:BRAT-Avp^di)”
as §2, with “Microhematocrit” for “Blood, urine and tissue analysis: Osmolalities of clear urine samples were measured by vapor pressure method (Wescor, Logan, Utah, USA). Microhematocrit”, “Total nitrate/nitrite contents of urine samples were determined by a commercial kit (Cayman Chemical, Ann Arbor, Mich.).Na, Li and K levels in serum and/or urine were determined on EasyElectrolyte® (Medica Corp., Bedford, Mass., USA).” left out

[2] = system: ADP-activated P2Y12 receptor
[3] = lithium + clopidogrel (40 mg/kg bw/day per FIG. 11 legend)
[4] = lithium + clopidogrel (40 mg/kg bw/day per FIG. 12 legend)

COC(=O)[C@H](c1ccccc1Cl)N1CCc2sccc2C1 [clopidogrel]
lithium-induced decrease in AQP2 protein abundance in the renal medulla (AQP2 protein): significantly prevented | lithium-induced increase in urinary NO3/NO2 (total nitrates/nitrites excretion) (lithium-treated rats; [3]): significantly ameliorated | lithium-induced natriuresis (urinary sodium excretion) (lithium-treated rats; [3]): modest effect | lithium-induced increase in terminal hematocrit (lithium-treated rats; [4]): reversed | low gain in body weight due to lithium-treatment (lithium-treated rats; [4]): did not ameliorate | solute-free water absorption (negative value) ([1]; clopidogrel administered alone): modestly increased | lithium-induced urinary AVP levels ([1]; co-administration of clopidogrel with lithium): augmented | lithium-induced polyuria ([1]; lithium diet 40 mmol/kg chow + clopidogrel 20 mg/kg/day, 13 days): significantly ameliorated | lithium-induced solute-free water excretion (electrolyte-free water clearance, positive value) ([1]; lithium diet + clopidogrel 20 mg/kg/day, 13 days): effectively reversed | development of AVP-resistant polyuria ([2]; lithium-treated rodents): blocked the development | AVP in the urine (surrogate for plasma AVP levels) ([2]; rodents): increased | aquaporin-2 (AQP2) water channel protein in the kidney ([2]; rodents): increased | urinary concentration ([2]; rodents): significantly increased
